Values of other authors in patent US8614228B2, “Quinone prodrug compositions and methods of use” (ArQule, Inc., priority 2004, dated 2013).

Tested on: normal fresh or proliferating human PBMC

CC1(C)CCC2=C(O1)c1ccccc1C(=O)C2=O [β-lapachone, 3,4-dihydro-2,2-dimethyl-2H-naphtho[1,2-b]pyran-5,6-dione]
cytotoxic effects: No cytotoxic effects were observed
